Data reported in PMC9234671, “Molecular determinants of αVβ5 localization in flat clathrin lattices – role of αVβ5 in cell adhesion and proliferation” (Journal of Cell Science, 2022).
“Also recorded” adds a separate entry of the source. Ends that are not written are not given here.

Columns and labels:
[1] = molecular target: T1, full-length human ARH (Homo sapiens, UniProt Q5SW96); assay: Microscale thermophoresis (MST), ARH; assay type: binding
T1 construct: The full-length human ARH gene was cloned into the pETNKI-6xhis-3C-LIC vector; made in house; host or cells: E. coli BL21(DE3)
T1 sequence (Q5SW96 1-308): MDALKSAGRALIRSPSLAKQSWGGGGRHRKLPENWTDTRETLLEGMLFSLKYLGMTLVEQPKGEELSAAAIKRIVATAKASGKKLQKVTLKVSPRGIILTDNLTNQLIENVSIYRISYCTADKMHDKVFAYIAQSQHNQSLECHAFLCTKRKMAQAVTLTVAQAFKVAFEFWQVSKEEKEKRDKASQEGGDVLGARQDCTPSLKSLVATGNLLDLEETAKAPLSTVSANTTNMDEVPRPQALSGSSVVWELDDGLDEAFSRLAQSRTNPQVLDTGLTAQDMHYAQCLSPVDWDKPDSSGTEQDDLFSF
Text: (§1) Fig. 2. Adaptor protein binding to integrin β subunits. (A) Colocalization of integrin chimeras fused to the promiscuous biotin ligase BirA* (green in merge) with vinculin (red; left panels) or clathrin (red; right panels) in PA-JEB/β4 keratinocytes. Actin is shown in blue. Nuclei are stained with DAPI (cyan). Scale bars: 20 μm. (B) Representative western blots of BioID assays performed using the integrin chimeras shown in A. Quantifications of ARH, Numb and talin signal intensities normalized to streptavidin-HRP levels are shown (n=3; bars show mean±s.d.). (C) Representative western blots of pulldown assays (from two repeats) using synthetic integrin β cytoplasmic domains in RAC-11P cell lysates.
The full-length human ARH gene was cloned into the pETNKI-6xhis-3C-LIC vector ([Luna-Vargas et al., 2011]) and 6xhis–ARH protein was produced in Bl21(DE3) E. coli cells. Cells were grown at 37°C until an optical density at 600 nm (OD600) of 0.6 was reached. Temperature was reduced to 30°C and protein was expressed upon induction with 0.4 mM IPTG for 3.5 h. Cells were harvested and resuspended in lysis buffer (20 mM HEPES, pH 7.5, 200 mM NaCl, 1 mM TCEP and 5 μg ml^−1 DNase). After sonication, cell debris and insoluble proteins were removed by centrifugation (21,000 g for 30 min). 6xhis–ARH was purified from the soluble fraction using nickel Sepharose beads and eluted in 20 mM HEPES, pH 7.5, 200 mM NaCl, 1 mM TCEP and 250 mM imidazole. Fractions containing 6xhi–ARH were further purified on a SEC650 size exclusion column (Bio-Rad), equilibrated with 20 mM HEPES, pH 7.5, 100 mM NaCl and 1 mM TCEP.
All MST measurements were performed on a Monolith NT.115 red-blue (Nanotemper, Munich, Germany) using premium-coated capillaries to reduce non-specific interaction of the proteins with the glass surface. Both interaction partners (ligand and receptor) were transferred into MST buffer (20 mM Tris-HCl pH 7.5, 200 mM sodium chloride, 1 mM TCEP and 0.05% Tween-20) to avoid artifacts derived from buffer mismatches. […] Data was analyzed using the MO Affinity Analysis Software (Nanotemper).

[2] = molecular target: T2, Numb-PTB (20-175) (Homo sapiens, UniProt P49757); assay: Microscale thermophoresis (MST), Numb; assay type: binding
T2 construct: A pETNKI-6xhis-3C-Numb-PTB (20-175) construct was expressed in Rosetta2 (DE3) cells; 6xHis-3C (N, cleaved yes); made in house; host or cells: E. coli Rosetta2 (DE3)
T2 sequence (P49757 20-175): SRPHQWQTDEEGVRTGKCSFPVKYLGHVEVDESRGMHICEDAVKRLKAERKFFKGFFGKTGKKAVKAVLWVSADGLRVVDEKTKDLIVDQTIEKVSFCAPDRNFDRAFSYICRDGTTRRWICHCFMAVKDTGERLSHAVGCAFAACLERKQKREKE
Text: as §1
A pETNKI-6xhis-3C-Numb-PTB (20-175) construct was expressed in Rosetta2 (DE3) cells for 18 h at 20°C. Cells were lysed (25 mM Tris-HCl pH 8.0, 10 mM imidazole, 200 mM NaCl, 1 mM TCEP, 5 μg/ml DNase) and sonicated, after which insoluble proteins and cell debris were removed by centrifugation (21,000 g for 30 min at 4°C). Soluble lysate was applied to a nickel Sepharose column and beads were washed with wash buffer (lysis buffer without DNase) before protein was eluted in wash buffer supplemented with 250 mM imidazole. The 6xhis tag was cleaved off by his-3C protease during dialysis against 25 mM Tris-HCl pH 8.0, 100 mM NaCl, 1 mM TCEP, 16 h at 4°C. Elution fractions were pooled, diluted with six volumes of 20 mM HEPES pH 7.5, 1 mM TCEP and applied to a 1 ml Resource S cation-exchange column (Cytiva). Protein was eluted in a NaCl gradient (50–700 mM) in 25 mM HEPES (pH 7.5). 6xhis-Numb-PTB was concentrated and further purified by size-exclusion chromatography (SEC70 column, Bio-Rad) in 25 mM Tris-HCl pH 8.0, 200 mM NaCl and 1 mM TCEP.
All MST measurements were performed on a Monolith NT.115 red-blue (Nanotemper, Munich, Germany) using premium-coated capillaries to reduce non-specific interaction of the proteins with the glass surface. […] Data was analyzed using the MO Affinity Analysis Software (Nanotemper).

[3] = molecular target: T3, talin-1 head domain (THD1) (Homo sapiens, UniProt Q9Y490); assay: Microscale thermophoresis (MST), talin-1 head domain; assay type: binding; conditions: Atto488-labeled β5 cytoplasmic tail 50–200 nM, 20 mM Tris-HCl pH 7.5, 200 mM NaCl, 1 mM TCEP, 0.05% Tween-20, mean±s.d., n≥5
T3 construct: pCoofy17-THD1 (1-405) constructs were transformed into Rosetta2(DE3) cells; His-SUMO (N, cleaved yes); made in house; host or cells: E. coli Rosetta2(DE3)
Text: as §1, with “lysates. […]” for “lysates.”
pCoofy17-THD1 (1-405) constructs were transformed into Rosetta2(DE3) cells and his-SUMO-THD1 proteins were expressed for 16 h at 20°C after induction with 0.4 mm IPTG. Cells were harvested and resuspended in 25 mM Tris-HCl pH 8.0, 10 mM imidazole, 200 mM NaCl, 1 mM TCEP and 5 μg ml^−1 DNase, and lysed by sonication. […]
All MST measurements were performed on a Monolith NT.115 red-blue (Nanotemper, Munich, Germany) using premium-coated capillaries to reduce non-specific interaction of the proteins with the glass surface. […] Data was analyzed using the MO Affinity Analysis Software (Nanotemper). […]

[4] = system: Numb; assay: Peptide pulldown, Numb; assay type: binding; conditions: desthiobiotin tail peptide on streptavidin beads, RAC-11P lysate, 4°C, 4 h; western blot; two repeats
Procedure: (§2) Peptide pulldowns were carried out as previously described ([Böttcher et al., 2012]) with the mouse β1 wild-type cytoplasmic tail peptide ([…]-OH) and a scrambled peptide ([…]-OH), mouse β3 wild-type tail peptide ([…]-OH), mouse β5 wild-type tail peptide ([…]-OH), β5 Δ8aa tail peptide ([…]-OH) and scrambled peptide […].
(§3) The tail peptides were synthesized de novo with a desthiobiotin on the N-terminus, coupled to Dynabeads MyOne streptavidin C1 (10 mgml^−1, Invitrogen) and incubated with RAC-11P cell lysates (prepared with M-PER reagent, Thermo Fisher Scientific) at 4°C with rotation for 4 h. After three washes with wash buffer (M-PER diluted 1:1 with PBS), bound proteins were eluted in 2× Laemmli buffer at 95°C for 5 min and separated on an 8% SDS-PAGE gel.

[5] = system: SNX17; assay: Peptide pulldown, SNX17; assay type: binding; conditions: desthiobiotin tail peptide on streptavidin beads, RAC-11P lysate, 4°C, 4 h; western blot; two repeats
Procedure: as §2, §3

[6] = system: cytoskeletal or clathrin adaptor proteins; assay: Peptide pulldown, cytoskeletal or clathrin adaptor proteins; assay type: binding; conditions: desthiobiotin tail peptide on streptavidin beads, RAC-11P lysate, 4°C, 4 h; western blot; two repeats
Procedure: as §2, §3

[7] = system: ARH; assay: Peptide pulldown, ARH; assay type: binding; conditions: desthiobiotin tail peptide on streptavidin beads, RAC-11P lysate, 4°C, 4 h; western blot; two repeats
Procedure: as §2, §3

[8] = molecular target: Atto488-labeled integrin β5 cytoplasmic tail; assay: MST; 50–200 nM Atto488-labeled integrin-β cytoplasmic tail as ligand; 20 mM Tris-HCl pH 7.5, 200 mM sodium chloride, 1 mM TCEP, 0.05% Tween-20; Monolith NT.115
[9] = MST, Atto488-labeled β5 cytoplasmic tail 50–200 nM, 20 mM Tris-HCl pH 7.5, 200 mM NaCl, 1 mM TCEP, 0.05% Tween-20, mean±s.d., n≥5
[10] = concentration range tested up to 75 µM for β3

T3 sequence (Q9Y490 1-405): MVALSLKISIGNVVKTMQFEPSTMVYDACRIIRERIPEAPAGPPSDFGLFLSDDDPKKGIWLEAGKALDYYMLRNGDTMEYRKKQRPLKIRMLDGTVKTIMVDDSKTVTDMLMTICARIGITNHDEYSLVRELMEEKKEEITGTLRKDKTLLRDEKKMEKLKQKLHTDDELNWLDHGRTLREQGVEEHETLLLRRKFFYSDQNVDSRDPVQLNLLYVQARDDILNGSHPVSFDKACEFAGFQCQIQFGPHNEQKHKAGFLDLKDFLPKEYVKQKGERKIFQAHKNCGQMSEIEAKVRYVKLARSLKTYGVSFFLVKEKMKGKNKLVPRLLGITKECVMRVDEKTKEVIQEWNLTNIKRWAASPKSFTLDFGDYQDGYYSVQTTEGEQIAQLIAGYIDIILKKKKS

DRREFAKFQSERSRARYEMASNPLYRKPISTHTVDFAFNKFNKSYNGSVD [β5]
Kd [1, 9]: 5.6 ± 1.4 µM
Kd [2, 9]: 28.5 ± 7.7 µM
Kd [3]: 41.7 ± 9.5 µM

DRREFAKFQSERSRARYEMASNPLYRKPISTVVNKSYNGSVD-OH [β5 Δ8 aa, β5 tail peptide carrying a deletion of 8 amino acids between the NPxY and NxxY motifs]
interaction with Numb in pulldown [4]: binds considerably more
interaction with SNX17 in pulldown [5]: abrogated
binding of cytoskeletal or clathrin adaptor proteins in pulldown [6]: prevented neither the clustering of β5 in FCLs ([Zuidema et al., 2018]) nor the binding of cytoskeletal or clathrin adaptor proteins to the β5 tail

EYEFEPDKVDTGAKGTKMAKNEKKFRNYTVHNIWESRKVAP-OH [β1 scrambled peptide, scrambled β1 tail peptide, control, reference compound]
interaction with ARH in pulldown [7]: hardly
interaction with Numb in pulldown [4]: some background binding

HDRKEFAKFEEERARAKWDTANNPLYKEATSTFTNITYRGT-OH [β3, synthetic integrin β3 cytoplasmic tail peptide]
binding to ARH by MST (β3) [1, 10]: no binding; also recorded: unable to detect binding
binding to Numb by MST (β3) [2, 10]: no binding; also recorded: unable to detect binding
interaction with ARH in pulldown [7]: not β1 and β3, bind to Numb and ARH
interaction with Numb in pulldown [4]: not β1 and β3, bind to Numb and ARH
interaction with SNX17 in pulldown [5]: interacted strongly

talin-1 head domain (THD1) (from UniProt P26039 1-405) (domain or fragment)
Kd [8]: 41.7 µM

B1: Numb-PTB (20-175) (domain or fragment)
chain: T2 sequence (P49757 20-175)
Kd [8]: 28.5 µM

B2: 6xhis–ARH (natural protein)
chain: T1 sequence (Q5SW96 1-308)
Kd [8]: 5.6 µM
